Source: US9901637B2, “Vitamin D3 and analogs thereof for treating alopecia” (priority 2009, dated 2018)
Where two headings read alike, the source gives them in different places.

What was measured:
[1] = tested on: Primary human epidermal keratinocytes (HEKa); test: Real-time PCR array, Neuroscience and Ion Channels Array, calcitriol-treated HEKa; assay type: cell-based; details: HEKa cells, 0.1 μg/mL calcitriol, three independent experiments
Experimental: Changes in mRNA levels were evaluated using real-time PCR quantification to assess mRNA levels in preselected subsets containing 80 pathway specific targets (see Appendix). The PCR array analysis utilized two groups of genes—those related to Heat Shock Proteins (SABiosciences), and those related to Neuroscience Ion Channels and Transporters (SABioscience). Primary human epidermal keratinocytes (HEKa) were maintained in Epilife Medium (Cascade Biologics, Inc., Portland Oreg.) along with Human Keratinocyte Growth Supplement (Cascade Biologics, Inc., Portland Oreg.). […] Vehicle control group of cells were treated with 5 mL media containing 1 μL of ethanol. Cells were harvested 3, 6, 16, 24, 48, or 72 hours after the start of the treatment. Cells were lysed for RNA isolation at different treatment times using the RNeasy Mini kit (Qiagen, Inc., Valencia Calif.) following the manufacturer's instructions. RNA was quantified by measuring optical density at 260 nm. First Strand Synthesis: […] Products from the first strand synthesis were diluted with water, mixed with the SYBR green master mix (SABiosciences, Frederick Md.) and loaded onto PCR arrays. Real time PCR was run on the PCR Arrays (Heat Shock Protein Arrays, and Neuroscience and Ion Channel Arrays) (SABiosciences, Frederick Md.) on a Biorad CFX96. Data analyses were performed using the PCR array data analysis software available on the SABiosciences website.

HEKa cells [2] = test: Antibody microarray (Panorama XP725) of calcitriol-treated HEKa; assay type: cell-based, human; details: calcitriol-treated (24 hour), 3-hour sample as baseline
Experimental: Briefly, the treated HEKa cells were first harvested and then extracted to obtain a soluble protein supernatant. […] The excess dye was removed from the protein sample, and the resulting labeled protein samples were used for microarray incubation. To determine the expression level of a particular target protein at a later time point (e.g., at hour 6 or 24) relative to that at an earlier time point (e.g., at hour 3), the samples were labeled by different labels (e.g., 3-hour extract labeled with Cy3,6-hour or 24-hour extract labeled with Cy5). […] After incubation with the microarray chip (according to manufactures recommended protocols), the chips were washed and dried. The microarrays were then scanned with a fluorescent laser scanner to measure the relative fluorescence intensity of the Cy3 and Cy5 dyes. If the amount of a particular type of target protein increased (or decreased) over time, more (or less) of the dye associated with the later time point (e.g., Cy5) will be retained by the microarray. For example, in this experiment, the earliest time point (e.g., 3-hour) was used as a baseline to determine the relative protein expression level at two later time points (e.g., 6-hour vs. 24-hour). If more Cy5 is retained by the array between 6-24 hours, the expression level of the target protein increased over the time period. […]

HEKa cells [3] = test: Protective effect of calcitriol on HEKa cells against chemotherapeutic drugs; assay type: cell-based, human; details: 0.1 μg/mL calcitriol
Experimental: These include: erlotinib (Tarceva), an EGFR Tyr kinase inhibitor; gefutubib (Iressa), an EGFR Tyr kinase inhibitor; sorafenib, inhibitor of several Tyr kinases (Raf, VEGF-R2, c-kit, PDGR-R); Dasatinib, a BCR/ABL Tyr kinase inhibitor; and staurosporin, a relatively nonspecific kinase inhibitor.
The drug treatment period was usually three days. At the end of the three days, the background OD of the 96-well plate was read at 280 nm, before 20 μL of the “Substrate Cell Titer 96 Aqueous One Solution Reagent” (Promega) was added to each well. The plate was returned to the 37° C. incubator, and its OD at 490 nm was read each hour until an OD of approximately 1.5 was reached. The net OD increase was calculated by subtracting the pre-substrate OD reading.
The impact of the drug on the cells was calculated by comparing the OD at different concentrations in relation to the OD of the control wells (without the drug).

[4] = tested on: PaCa2 (pancreatic carcinoma); test: Cell growth/viability assay, calcitriol with or without chemotherapy drug; assay type: cell-based
[5] = tested on: MCF-7 (breast cancer with p53 mutation); test: as above; assay type: cell-based
HepG2 (liver cancer) = test: as above; assay type: cell-based
PC-3 = test: Cell viability assay after calcitriol exposure for two passages; assay type: cell-based; details: PC-3, 0.1 μg/mL calcitriol for two passages
Experimental: Then these pretreated cells were utilized to set up the cell-based assay. […] Three commonly used chemotherapy drugs (doxorubicin, cisplatin and erlotinib) were selected to evaluate calcitriol treated cells. […] In these experiments, the commercial drugs were serially diluted, starting at a concentration 4-times higher than the final desired concentration for cell incubation.

[6] = Preliminary animal toxicology study; assay type: in vivo; details: dose of about 100 μg
in vivo = details: Gottingen, minipig, topical
Description: At the end of the study, the skin was reflected from a ventral midline incision, and sections of treated and untreated skin were collected and preserved. Sections of each 6×6 cm dosing site were first thoroughly surface washed with a mild soap and water mixture (e.g., 1% Ivory Soap in water or equivalent) to remove any residual topical test formulation. The washed skin sections were then wiped clean with ethanol, and were excised down to and including the adipose layer. If the area to be excised is larger than the dosed area, the dosed area was demarked with indelible ink to delineate the skin area that was dosed. The 1.5 cm×1.5 cm sections were laid flat, wrapped in two layers of Saran wrap (or equivalent) and flash frozen in liquid nitrogen. The samples were stored at −70° C. and shipped on dry ice via overnight courier for analysis. Each skin section was identified as appropriate (e.g., animal identification, study number, date, etc).
Upon arrival at the analysis site, skin sections were placed in water tight plastic bag and thawed by emersion in warm water (˜30° C.-35° C.). Each skin section was gently rinsed with distilled de-ionized water to remove any residual test article and blood. All subcutaneous tissue (e.g., adipose) was removed by manual scalpel ablation. Within the central region of the dosed area, four individual 1 cm^2 circles (replicates) were demarked, and each site was subsequently identified and the actual area recorded. The replicate test sites were then excised from the skin sheet using a 1 cm^2 punch. The skin sections were weighed and the weight recorded. […] This process removed the stratum corneum and any residual surface dose.
Following tape stripping, the skin was separated into epidermis (sans stratum corneum, simply referred to herein after as “epidermis”) and dermis by heat exposure to 60° C. for approximately 1-1.5 minutes. The skin layers were then teased apart using fine-tipped forceps or scalpel. The epidermis and dermis were weighed and the weight recorded.
For extraction, all skin samples were extracted in 1 mL of absolute ethanol (Sigma-Aldrich, USP/NF Grade). Tape strips were extracted in 5 mL acetonitrile (EMD, HPLC Grade). All extractions were conducted at room temperature for approximately 24 hours. An amount of 500 μL of the tape strip extract was dried by vacuum centrifugation and reconstituted in 100 μL absolute acetonitrile. The epidermal extract was also dried and reconstituted in 100 μL 80:20 ethanol:water.
Lower limit of detection is estimated at 0.4 ng/mL.
However, the concentration reported, as μg/mg, is determined by the differential total sample weight before layer separation minus the weights of the epidermis and dermis for that sample (rather than by actual weight due to its adherence to the tape strips). Epidermal and dermal samples are reported as tissue concentration (ng/mg) using the amount measured from the sample divided by actual wet weight of the skin layer.

## C=C1/C(=C\C=C2/CCC[C@]3(C)[C@@H]([C@H](C)CCCC(C)(C)O)CC[C@@H]23)C[C@@H](O)C[C@@H]1O [Calcitriol, 1,25-dihydroxyvitamin D3]
[1]; at 16 hrs
  SLC1A1 mRNA Regulation Pattern: upregulated
[1]; at 48 hours
  KCNN4 mRNA Regulation Pattern: upregulated at 48
[1]; until 24 hours
  KCNB2 mRNA Regulation Pattern: upregulated until
HEKa cells [2]
  Target Proteins with Decreased (>2-fold) Protein Levels Following Calcitriol Treatment (value = protein): Transforming Growth Factorb pan and WAVE and Protein Tyrosine Phosphatase PEST and CD40 and Crk II and Growth Factor Independence1 and Serine Threonine Protein and Cathepsin D
HEKa cells [3]
  protective effect against 5-FU: mild protective effect
  protective effect against Paxlitaxol (paclitaxel): some protective effects
  protective effect against gemcitabine: mild protective effect
  protective effect against irinotecan: positive protective effect
  protective effect against tamoxifen: weak
  protective effect against the cytotoxic effect of doxorubicin: did not appear to provide a significant protective effect
HEKa cells [3]; low dosage levels
  protection against alkylating agents cisplatin and carboplatin: moderate level of protection
HEKa cells [3]; low drug dosage levels
  protective effect against kinase inhibitor drugs (erlotinib, gefitinib, sorafenib, dasatinib, staurosporin): protected the HEKa cells
[4]; PaCa2
  effect of calcitriol on cell growth: no significant growth promoting or growth inhibiting effects
[4]; PaCa-2
  effect on the cytotoxic effect of Doxorubicin: did not appear to appreciably alter
[4]; PaCa-2, 0.1 μg/mL calcitriol
  5-FU ED50 curve with versus without calcitriol: not significantly different
[4]; PaCa-2, 0.1 μg/mL calcitriol for two passages
  response to other drugs (doxorubucin, cisplatin, erlotinib) after calcitriol exposure: did not alter
[5]; MCF-7
  concentrations giving calcitriol growth inhibition: > 0.5 µg/mL
  concentrations giving calcitriol growth stimulation: 0.05 to 0.25 µg/mL
  effect on the cytotoxic effect of Doxorubicin: did not appear to appreciably alter
[5]; MCF-7, 0.1 μg/mL calcitriol for two passages
  response to other drugs (doxorubucin, cisplatin, erlotinib) after calcitriol exposure: did not alter
HepG2 (liver cancer); Hep-G2
  effect on the cytotoxic effect of Doxorubicin: did not appear to appreciably alter
HepG2 (liver cancer); Hep-G2, 0.1 μg/mL calcitriol
  5-FU ED50 curve with versus without calcitriol: not significantly different
HepG2 (liver cancer); Hep-G2, 0.1 μg/mL calcitriol for two passages
  response to other drugs (doxorubucin, cisplatin, erlotinib) after calcitriol exposure: did not alter
HepG2 (liver cancer); HepG2
  concentrations giving calcitriol growth inhibition: > 0.5 µg/mL
  concentrations giving calcitriol growth stimulation: 0.05 to 0.25 µg/mL
PC-3
  response to other drugs (doxorubucin, cisplatin, erlotinib) after calcitriol exposure: did not alter
[6]
  dermal irritation: no dermal irritation
  skin penetration: excellent epidermal penetration without substantial dermal penetration
Female Minipigs, 1 μg/mL dermal twice daily 7 days
  Stratum Corneum, Calcitriol Recovered, Mean ± SD: 0.76 ± 1.3 (3) ng/cm2
Female Minipigs, 3 μg/mL dermal twice daily 7 days
  Stratum Corneum, Calcitriol Recovered, Mean ± SD: 1.12 ± 1.49(3) ng/cm2
Female Minipigs, 10 μg/mL dermal twice daily 7 days
  Stratum Corneum, Calcitriol Recovered, Mean ± SD: 1.65 ± 1.80 (3) ng/cm2
Female Minipigs, 30 μg/mL dermal twice daily 7 days
  Stratum Corneum, Calcitriol Recovered, Mean ± SD: 20.2 ± 11.7 (3) ng/cm2
Male Minipigs (1 animal), 100 μg/mL dermal twice daily 7 days
  Stratum Corneum, Calcitriol Recovered, Mean ± SD: 118.1 ± 11.4 (1) ng/cm2
Male Minipigs, 1 μg/mL dermal twice daily 7 days
  Stratum Corneum, Calcitriol Recovered, Mean ± SD: 56.1 ± 17.4 (3) ng/cm2
Male Minipigs, 3 μg/mL dermal twice daily 7 days
  Stratum Corneum, Calcitriol Recovered, Mean ± SD: 62.4 ± 7.91 (3) ng/cm2
Male Minipigs, 10 μg/mL dermal twice daily 7 days
  Stratum Corneum, Calcitriol Recovered, Mean ± SD: 59.6 ± 14.1 (3) ng/cm2
Male Minipigs, 30 μg/mL dermal twice daily 7 days
  Stratum Corneum, Calcitriol Recovered, Mean ± SD: 54.6 ± 32.5 (3) ng/cm2
minipigs, calcitriol concentrations from 3 to 100 μg/mL
  applied dose correlation to tissue level in the epidermis: near linear increase
In vivo; female, stratum corneum (tape strips), 1 μg/mL
  concentration at 7 days: 30 ± 50 ng/g
In vivo; female, stratum corneum (tape strips), 3 μg/mL
  concentration at 7 days: 40 ± 60 ng/g
In vivo; female, stratum corneum (tape strips), 10 μg/mL
  concentration at 7 days: 50 ± 40 ng/g
In vivo; female, stratum corneum (tape strips), 30 μg/mL
  concentration at 7 days: 640 ± 370 ng/g
In vivo; female, 1 μg/mL
  concentration at 7 days: 0 ng/g
In vivo; female, 3 μg/mL
  concentration at 7 days: 0 ng/g
In vivo; male, stratum corneum (tape strips), 1 μg/mL
  concentration at 7 days: 1540 ± 790 ng/g
In vivo; male, stratum corneum (tape strips), 3 μg/mL
  concentration at 7 days: 1630 ± 250 ng/g
In vivo; male, stratum corneum (tape strips), 10 μg/mL
  concentration at 7 days: 2020 ± 390 ng/g
In vivo; male, stratum corneum (tape strips), 30 μg/mL
  concentration at 7 days: 1510 ± 890 ng/g
In vivo; male, stratum corneum (tape strips), 100 μg/mL
  concentration at 7 days: 4520 ± 1210 ng/g
